Test results published in patent US9682991B2, “Tricyclic compounds for use as kinase inhibitors” (FUNDACIÓN CENTRO NACIONAL DE INVESTIGACIONES ONCOLOGICAS …, priority 2009, dated 2017).
Read-outs that look alike come from different tables or passages of the source.

Experiments:
PIM-2 = PIM-2 (Homo sapiens (Human), UniProt Q9P1W9); assay: PIM-2 biochemical assay (ADP Hunter); conditions: semi-quantitative; read-out: PIM2 IC50
Description: The biochemical assay to measure PIM-2 activity relies on the ADP Hunter assay kit (DiscoveRx Corp., Cat. #90-0077), that determines the amount of ADP as direct product of the kinase enzyme activity.

PIM-1 = PIM-1 (Homo sapiens (Human), UniProt P11309); assay: PIM-1 biochemical assay (ADP Hunter)
Chain of PIM-1 (P11309 whole entry): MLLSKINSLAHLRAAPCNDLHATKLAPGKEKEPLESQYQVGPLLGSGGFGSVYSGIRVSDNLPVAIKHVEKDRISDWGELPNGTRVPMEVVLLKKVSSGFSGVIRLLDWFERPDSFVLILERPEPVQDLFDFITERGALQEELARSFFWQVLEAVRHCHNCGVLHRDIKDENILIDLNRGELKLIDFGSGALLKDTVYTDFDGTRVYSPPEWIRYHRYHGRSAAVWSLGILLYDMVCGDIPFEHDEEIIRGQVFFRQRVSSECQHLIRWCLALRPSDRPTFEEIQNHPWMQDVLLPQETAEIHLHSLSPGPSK

[1] = read-out: PIM1 IC50, semi-quantitative

Chain of PIM-2 (Q9P1W9 whole entry): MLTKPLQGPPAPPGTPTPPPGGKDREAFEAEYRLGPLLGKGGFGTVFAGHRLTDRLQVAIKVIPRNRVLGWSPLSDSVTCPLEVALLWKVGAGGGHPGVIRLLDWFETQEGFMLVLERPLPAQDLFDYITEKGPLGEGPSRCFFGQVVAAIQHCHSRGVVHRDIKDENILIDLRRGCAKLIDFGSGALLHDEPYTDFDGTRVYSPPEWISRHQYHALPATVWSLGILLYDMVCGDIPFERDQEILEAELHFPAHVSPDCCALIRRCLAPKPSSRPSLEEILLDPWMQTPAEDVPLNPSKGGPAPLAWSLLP

SMILES | IC50 (PIM-2) [µM] | IC50 (PIM-1) [µM] | IC50 (PIM-1; read-out: PIM1 IC50) [µM] | IC50 (PIM-1; [1]) [µM]
COc1ccc(-c2nnc3c4c(c(NCCN5CCOCC5)nn23)N(C)CCO4)cc1 [Example 4, [3-(4-Methoxy-phenyl)-6-methyl-7,8-dihydro-6H-9-oxa-1,2,3a,4,6-pentaaza-cyclopenta[a]naphthalen-5-yl]-(2-morpholin-4-yl-ethyl)-amine] | > 1 | 0.1 to 1 | 0.811 | –
COc1ccc(-c2nnc3c4c(c(NCc5ccc(F)cc5)nn23)N(C)CCN4C)cc1 [Example 15, (4-Fluoro-benzyl)-[3-(4-methoxy-phenyl)-6,9-dimethyl-6,7,8,9-tetrahydro-1,2,3a,4,6,9-hexaaza-cyclopenta[a]naphthalen-5-yl]-amine] | > 1 | > 1 | 4.35 | –
CN1CCOc2c1c(N1CCCC3(CCCN3C)CC1)nn1c(-c3cccc(OC(F)(F)F)c3)nnc21 (stereo not drawn) [Example 61, 6-Methyl-5-(1-methyl-1,8-diaza-spiro[4.6]undec-8-yl)-3-(3-trifluoromethoxy-phenyl)-7,8-dihydro-6H-9-oxa-1,2,3a,4,6-pentaaza-cyclopenta[a]naphthalene] | 0.1 to 1 | – | – | < 0.1
CNC1CCN(c2nn3c(-c4cccc(OC(F)(F)F)c4)nnc3c3c2OCCN3C)CC1 [Example 44, Methyl-{1-[9-methyl-3-(3-trifluoromethoxy-phenyl)-8,9-dihydro-7H-6-oxa-1,2,3a,4,9-pentaaza-cyclopenta[a]naphthalen-5-yl]-piperidin-4-yl}-amine] | > 1 | 0.1 to 1 | – | –
CN1CCOc2c(NCCCO)nn3c(-c4cccc(OC(F)(F)F)c4)nnc3c21 [Example 22, 3-[9-Methyl-3-(3-trifluoromethoxy-phenyl)-8,9-dihydro-7H-6-oxa-1,2,3a,4,9-pentaaza-cyclopenta[a]naphthalen-5-ylamino]-propan-1-ol] | > 1 | 0.1 to 1 | 0.678 | –
COc1ccc(CNc2nn3c(-c4cccc(OC(F)(F)F)c4)nnc3c3c2N(C)CCO3)cc1OC [Example 24, (3,4-Dimethoxy-benzyl)-[6-methyl-3-(3-trifluoromethoxy-phenyl)-7,8-dihydro-6H-9-oxa-1,2,3a,4,6-pentaaza-cyclopenta[a]naphthalen-5-yl]-amine] | > 1 | 0.1 to 1 | – | –
CN1CCOc2c1c(N[C@H]1CC[C@H](O)CC1)nn1c(-c3cccc(OC(F)(F)F)c3)nnc21 [Example 19, 4-[6-Methyl-3-(3-trifluoromethoxy-phenyl)-7,8-dihydro-6H-9-oxa-1,2,3a,4,6-pentaaza-cyclopenta[a]naphthalen-5-ylamino]-cyclohexanol] | – | – | – | < 0.1
CN1CCOc2c1c(N(C)[C@H]1CC[C@H](O)CC1)nn1c(-c3cccc(OC(F)(F)F)c3)nnc21 [Example 35, 4-{Methyl-[6-methyl-3-(3-trifluoromethoxy-phenyl)-7,8-dihydro-6H-9-oxa-1,2,3a,4,6-pentaaza-cyclopenta[a]naphthalen-5-yl]-amino}-cyclohexanol] | < 0.1 | – | – | < 0.1
CN1CCC(CN(C)c2nn3c(-c4cccc(OC(F)(F)F)c4)nnc3c3c2OCCN3C)CC1 [Example 18, Methyl-(1-methyl-piperidin-4-ylmethyl)-[9-methyl-3-(3-trifluoromethoxy-phenyl)-8,9-dihydro-7H-6-oxa-1,2,3a,4,9-pentaaza-cyclopenta[a]naphthalen-5-yl]-amine] | > 1 | – | – | > 1
COc1ccc(-c2nnc3c4c(c(NCC5CCN(C)CC5)nn23)N(C)CCO4)cc1 [Example 1, [3-(4-Methoxy-phenyl)-6-methyl-7,8-dihydro-6H-9-oxa-1,2,3a,4,6-pentaaza-cyclopenta[a]naphthalen-5-yl]-(1-methyl-piperidin-4-ylmethyl)-amine] | > 1 | 0.1 to 1 | – | –
CN1CCC(CNc2nn3c(-c4ccc5[nH]ccc5c4)nnc3c3c2N(C)CCO3)CC1 [Example 33, [3-(1H-Indol-5-yl)-6-methyl-7,8-dihydro-6H-9-oxa-1,2,3a,4,6-pentaaza-cyclopenta[a]naphthalen-5-yl]-(1-methyl-piperidin-4-ylmethyl)-amine] | > 1 | 0.1 to 1 | – | –
CN1CCOc2c(NCCN3CCNCC3)nn3c(-c4cccc(OC(F)(F)F)c4)nnc3c21 [Example 42, [9-Methyl-3-(3-trifluoromethoxy-phenyl)-8,9-dihydro-7H-6-oxa-1,2,3a,4,9-pentaaza-cyclopenta[a]naphthalen-5-yl]-(2-piperazin-1-yl-ethyl)-amine] | – | 0.1 to 1 | – | –
CN1CCC(Nc2nn3c(-c4cccc(OC(F)(F)F)c4)nnc3c3c2OCCN3C)CC1 [Example 3, (1-Methyl-piperidin-4-yl)-[9-methyl-3-(3-trifluoromethoxy-phenyl)-8,9-dihydro-7H-6-oxa-1,2,3a,4,9-pentaaza-cyclopenta[a]naphthalen-5-yl]-amine] | > 1 | 0.1 to 1 | – | –
CC1COc2c(NCC3CCN(C)CC3)nn3c(-c4cccc(OC(F)(F)F)c4)nnc3c2N1C (stereo not drawn) [Example 38, [8,9-Dimethyl-3-(3-trifluoromethoxy-phenyl)-8,9-dihydro-7H-6-oxa-1,2,3a,4,9-pentaaza-cyclopenta[a]naphthalen-5-yl]-(1-methyl-piperidin-4-ylmethyl)-amine] | – | 0.1 to 1 | – | –

Results, then the compound that gave them:

IC50 (PIM-2) [µM] | IC50 (PIM-1) [µM] | IC50 (PIM-1; read-out: PIM1 IC50) [µM] | IC50 (PIM-1; [1]) [µM] | SMILES
> 1 | 0.1 to 1 | – | – | CN1CCOc2c(NC3CCNCC3)nn3c(-c4cccc(OC(F)(F)F)c4)nnc3c21 [Example 47, [9-Methyl-3-(3-trifluoromethoxy-phenyl)-8,9-dihydro-7H-6-oxa-1,2,3a,4,9-pentaaza-cyclopenta[a]naphthalen-5-yl]-piperidin-4-yl-amine]
> 1 | – | – | > 1 | CC(=O)N1CCN(CCNc2nn3c(-c4cccc(OC(F)(F)F)c4)nnc3c3c2OCCN3C)CC1 [Example 95, 1-(4-{2-[9-Methyl-3-(3-trifluoromethoxy-phenyl)-8,9-dihydro-7H-6-oxa-1,2,3a,4,9-pentaaza-cyclopenta[a]naphthalen-5-ylamino]-ethyl}-piperazin-1-yl)-ethanone]
> 1 | – | – | > 1 | COc1ccc(-c2nnc3c4c(c(NCC5CCN(C(=O)OC(C)(C)C)CC5)nn23)N(C)CCO4)cc1 [Example 51, 4-{[3-(4-Methoxy-phenyl)-6-methyl-7,8-dihydro-6H-9-oxa-1,2,3a,4,6-pentaaza-cyclopenta[a]naphthalen-5-ylamino]-methyl}-piperidine-1-carboxylic acid tert-butyl ester]
– | – | – | < 0.1 | CC1COc2c(c(N3CCC4(CC3)CC(N)C4)nn3c(-c4cccc(OC(F)(F)F)c4)nnc23)N1C (stereo not drawn) [Example 50, 7-[6,7-Dimethyl-3-(3-trifluoromethoxy-phenyl)-7,8-dihydro-6H-9-oxa-1,2,3a,4,6-pentaaza-cyclopenta[a]naphthalen-5-yl]-7-aza-spiro[3.5]non-2-ylamine]
< 0.1 | – | – | < 0.1 | FC(F)(F)Oc1cccc(-c2nnc3c4c(c(NCC5CC5)nn23)OCCO4)c1 [Example 102, Cyclopropylmethyl-[3-(3-trifluoromethoxy-phenyl)-7,8-dihydro-6,9-dioxa-1,2,3a,4-tetraaza-cyclopenta[a]naphthalen-5-yl]-amine]
< 0.1 | – | – | < 0.1 | CN1CCOc2c1c(N1CCCC3(CCNCC3)C1)nn1c(-c3cccc(OC(F)(F)F)c3)nnc21 [Example 68, 5-(2,9-Diaza-spiro[S5.5]undec-2-yl)-6-methyl-3-(3-trifluoromethoxy-phenyl)-7,8-dihydro-6H-9-oxa-1,2,3a,4,6-pentaaza-cyclopenta[a]naphthalene]
– | – | – | < 0.1 | CC(C)NC1CC2(CCN(c3nn4c(-c5cccc(OC(F)(F)F)c5)nnc4c4c3N(C)CCO4)CC2)C1 [Example 87, Isopropyl-{7-[6-methyl-3-(3-trifluoromethoxy-phenyl)-7,8-dihydro-6H-9-oxa-1,2,3a,4,6-pentaaza-cyclopenta[a]naphthalen-5-yl]-7-aza-spiro[3.5]non-2-yl}-amine]
> 1 | 0.1 to 1 | – | – | CN1CCC(CNc2nn3c(-c4ccc(O)cc4)nnc3c3c2N(C)CCO3)CC1 [Example 84, 4-{6-Methyl-5-[(1-methyl-piperidin-4-ylmethyl)-amino]-7,8-dihydro-6H-9-oxa-1,2,3a,4,6-pentaaza-cyclopenta[a]naphthalen-3-yl}-phenol]
> 1 | – | – | < 0.1 | CN1CCOc2c1c(NCC1CC[N+](C)([O-])CC1)nn1c(-c3cccc(OC(F)(F)F)c3)nnc21 (stereo not drawn) [Example 103, (1-Methyl-1-oxy-pipe-din-4-ylmethyl)-[6-methyl-3-(3-trifluoromethoxy-phenyl)-7,8-dihydro-6H-9-oxa-1,2,3a,4,6-pentaaza-cyclopenta[a]naphthalen-5-yl]-amine]
– | – | – | < 0.1 | CN1CCOc2c1c(N1CCC3(CCCNC3)CC1)nn1c(-c3cccc(OC(F)(F)F)c3)nnc21 [Example 67, 5-(2,9-Diaza-spiro[5.5]undec-9-yl)-6-methyl-3-(3-trifluoromethoxy-phenyl)-7,8-dihydro-6H-9-oxa-1,2,3a,4,6-pentaaza-cyclopenta[a]naphthalene]
– | – | – | < 0.1 | CN1CCOc2c1c(N[C@H]1CC[C@@H](N)CC1)nn1c(-c3cccc(OC(F)(F)F)c3)nnc21 [Example 70, N-[6-Methyl-3-(3-trifluoromethoxy-phenyl)-7,8-dihydro-6H-9-oxa-1,2,3a,4,6-pentaaza-cyclopenta[a]naphthalen-5-yl]-cyclohexane-1,4-diamine]
– | – | – | < 0.1 | CN(CC1CCNCC1)c1nn2c(-c3cccc(OC(F)(F)F)c3)nnc2c2c1N(C)CCO2 [Example 64, Methyl-[6-methyl-3-(3-trifluoromethoxy-phenyl)-7,8-dihydro-6H-9-oxa-1,2,3a,4,6-pentaaza-cyclopenta[a]naphthalen-5-yl]-piperidin-4-ylmethyl-amine]
– | – | – | < 0.1 | CN1CCOc2c1c(N[C@H]1CC[C@H](N)CC1)nn1c(-c3cccc(OC(F)(F)F)c3)nnc21 [Example 71, N-[6-Methyl-3-(3-trifluoromethoxy-phenyl)-7,8-dihydro-6H-9-oxa-1,2,3a,4,6-pentaaza-cyclopenta[a]naphthalen-5-yl]-cyclohexane-1,4-diamine]
